# Legend:
# [1] = system: A549 human lung cancer cell line harboring constitutively active Ras mutant; assay: MTT growth inhibition assay, A549; type: cell-based; settings: A549, MTT
# Protocol: (§1) MCF-7 (breast cancer), T47D (breast cancer), Colo 205 (colon cancer), JM-1 (rat hepatoma), Sk Mel-2 (melanoma), PLC (human hepatoma), and HepG2 (human hepatoma) were obtained from American Type Cell Culture Collection. MCF-7 cells were grown in RPMI medium supplemented with 10% Fetal Bovine Serum. The remaining cell lines were grown in DMEM medium supplemented with 10% Fetal Bovine Serum. For the assay, cells were seeded into 96 well plates in medium containing 1% Fetal Bovine Serum and 100 μL of a cell suspension containing 5000 cells per well were used for each well. Cell growth was evaluated utilizing MTT ((3-(4,5-Dimethylthiazol-2-yl)-2,5-diphenyltetrazolium). The absorbance of the wells at 544 nm was determined by a FLUOstar/POLARstar Galaxy (BMG Lab Technologies GmbH) microplate reader.
# (§2) The growth inhibitory activity of compounds was compared using the A549 human lung cancer cell line harboring constitutively active G12D Ras mutant with the help of an MTT assay. […] Stepwise extensions and truncations confirmed that the peptide had the optimal length (see Table 1).
# (§3) The growth inhibitory activity of compounds was compared using the A549 human lung cancer cell line harboring constitutively active G12D Ras mutant with the help of an MTT assay.
# [2] = system: activated (GTP-bound) Ras in H358 human lung cancer cells; assay: Raf-RBD pull-down of active (GTP-bound) Ras; type: cell-based; settings: 5 μM, varying exposure times
# Protocol: H358 human lung cancer cells were grown in 6-well plates in DMEM medium containing 10% FBS. When the cells were about 70% confluent, the medium was replaced with DMEM containing 1% FBS. Two hours later, Ras inhibitors (kR-H6-48, HR-1, kR-4A-4, or kR-4B-2) were added to provide a final concentration of 5 μM.
# After varying exposure times, the cells were rinsed with PBS and lysed. The lysates were cleared by centrifugation, incubated with immobilized Raf-RBD beads (which bind Ras) and analyzed by Western blot using manufacturer's protocols (Cytoskeleton, Inc., Denver, Colo.; Catalog No. BK008). The bands corresponding to active (GTP-bound) Ras were quantified with the help of MIPAV software.
# [3] = system: Ras-dependent cancer cells (H358, SKBR3, SKOV3, ID8, MPR-178); assay: MTT growth assay on Ras-dependent cancer cells; type: cell-based, human, murine; settings: 48 hours, 1% FBS
# Protocol: Ras-dependent cancer cells (H358 human lung cancer cells, SKBR3 human breast cancer cells, SKOV3 human ovarian cancer cells, ID8 murine ovarian cancer cells, and MPR-178 murine prostate cancer cells) were grown in DMEM medium containing 1% FBS and exposed to varying concentrations of Ras inhibitors (kR-H6-48 and HR-1) for 48 hours. Cell growth was evaluated utilizing an MTT ((3-(4,5-Dimethylthiazol-2-yl)-2,5-diphenyltetrazolium) assay. The absorbance of the wells at 544 nm was determined by a FLUOstar/POLARstar Galaxy (BMG Lab Technologies GmbH, Ortenberg, Germany) microplate reader. The assays were performed on untreated (control) and test cells. Cellular responses were calculated from the data using the following formula: 100×[(T−T0)/(C−T0)] for T>T0 and 100×[(T−T0)/T0] for T<T0, wherein T0 corresponds to cell density at the time of drug addition.
# HCC15 cells [4] = assay: Cell invasion, Boyden Chambers; type: cell-based; settings: IC25 concentration
# Protocol: Cell invasion assays were performed using the BD Biocoat Matrigel Invasion Chambers in accordance with the manufacturer's protocol. Cells (1×10^5/mL) were seeded onto 12-well cell culture chamber using inserts with 8 μm pore size polycarbonate membrane over a thin layer of Matrigel Basement Membrane Matrix without phenol red (BD Biosciences) diluted at 1:100 in PBS. Following incubation of the plates for 48 hours at 37° C., cells that invaded through the Matrigel and migrated to the lower surface of the membrane were stained with Giemsa solution, counted under the microscope in at least 10 different fields, and photographed. Three wells were examined for each condition and cell type, and the experiments were repeated in triplicate.
# (§4) The rate of migration and invasion was determined using Boyden Chambers (Millipore) in accordance with the manufacturer's protocol.
# HCC15 cells [5] = assay: Cell migration, Boyden Chambers; type: cell-based; settings: IC25 concentration
# Protocol: as §4
# HCC15 cells [6] = assay: Wound closure assay; type: cell-based
# [7] = system: A549 human lung cancer cell line harboring constitutively active G12D Ras mutant; assay: MTT growth inhibition assay, A549; type: cell-based
# Protocol: as §1, §2, §3
# [8] = system: DPPC bilayers containing 5% DPPE stabilized by MSP1 scaffold protein (nanodiscs); assay: SPR membrane binding to phospholipid bilayer nanodiscs
# Protocol: Dipalmitoylphosphatidylcholine (DPPC) bilayers containing 5% dipalmitoyldiphosphatidylethanolamine (DPPE) stabilized by MSP1 scaffold protein were prepared. […] The preparation procedure involved mixing DPPC lipids with MSP1 at a 90:1 molar ratio in the presence of 100 mM cholate. Cholate was removed by slow dialysis. The assembled nanodiscs were purified by size-exclusion chromatography on a calibrated Superdex 200 column and immobilized on a surface plasmon resonance (SPR) sensor chip.
# The presence of a primary amine group in DPPE provided a convenient site for cross-linking of nanodiscs to an SPR sensor chip. The noncross-linked dextran in the sample and reference cells was blocked by the coupling reagent. Four different peptides were used to study membrane binding by SPR. […] The HVR peptide lacks post-translational modifications present in K-Ras4B. The second peptide is the HVR peptide conjugated to S-farnesyl L-cysteine methyl ester via a bifunctional cross-linker Sulfosuccinimidyl-4-(N-maleimidomethyl)cyclohexane-1-carboxylate (Sulfo-SMCC) (Pierce). The other two peptides were kR-4A-C1 and kR-4B-C1.
# In this situation determination of true dissociation constants was not feasible. Instead, the data were analyzed using the Hill equation. The Hill coefficient describes the degree of binding cooperativity.
# [9] = system: human lung tumor cell lines (A549, H460, and H1944) and a mouse astrocytoma cell line (187436 tu2) expressing mutated K-Ras; assay: Growth inhibition in cell lines expressing mutated K-Ras (FIGS. 2 and 3); type: cell-based; settings: A549, H460, H1944, 187436 tu2
# From the text: The cell line was generated from astrocytoma developed in a transgenic mouse harboring a G12D mutation in K-Ras and inactivation of the Rb gene.
# [10] = system: H358 human lung cancer cells with mutated K-Ras; assay: H358 tumor growth in nude mice; type: in vivo
# From the text: 2×10^6 H358 human lung cancer cells with mutated K-Ras were implanted subcutaneously (s.c.) in nude mice.
# K-Ras in H2592 cells = K-Ras in H2592 cells (Homo sapiens, UniProt P01116); settings: GI50 concentrations, 18 hours
# From the text: Goat anti-mouse antibodies with Alexa Fluor TM 594 (red) were used to visualize the anti-Ras mouse mAb.
# [11] = system: Ras protein in H2009 and H2592 cells; assay: Western blot of Ras protein amount in cancer cells; type: cell-based; settings: 0-3.0 μM, 18 hours
# Protocol: A further experiment was undertaken to determine the effect of analogs of helix 6 and HVR on the amount of K-Ras protein in cancer cells. H2009 (lung adenocarcinoma cells) and H2592 (plural mesothelioma cells) were exposed to varying concentrations (0-3.0 μM) of kR-4A-3, kR-4B-3, or kR-H6-3 for 18 hours. The cells then were lysed and the lysate was analyzed by Western blot using anti-Ras mAb (Cell Biolabs, Inc.).
Substance,GI50 ([1]; Table 1 helix 6 derivatives) [nM],other results
Ac-ESGPGLNLNSLNKK-e-Pal [HR-1],,"GI50 ([1]; Table 2 HVR derivatives): 250 nM; GTP-bound Ras (fraction of control) [2]: reduction in activated (GTP-bound) Ras; growth of Ras-dependent cancer cells (cell number, percent of control) [3]: growth inhibition of Ras-dependent cancer cells"
Ac-VEDAFYTLVREIRQYR [kR-H6-16],> 5000,
Ac-RLKKISKEEKTPGSVKIKKK-e-Pal [kR-4A-1],,cell invasion (average number of cells migrated) (HCC15 cells [4]): inhibition of HCC15 cell invasion; GI50 ([1]; Table 2 HVR derivatives): 3100 nM; cell migration (average number of cells migrated) (HCC15 cells [5]): inhibition of NCC15 cell migration; cell motility (average closure) (HCC15 cells [6]): inhibition of HCC15 cell motility
Ac-YRLKKISKEEKTPGK-e-Pal [kR-4A-2],,GI50 ([1]; Table 2 HVR derivatives): 1650 nM
Pal-e-KAFYTLVREIRKHK [kR-H6-18],> 1000,
Ac-YQRKQRVLTYFK-e-Pal (all D) [kR-H6-13],60,
Ac-YQRIQRVLTYFK-e-Pal (all D) [kR-H6-11],10,
Pal-e-KAFYTLVRQIRQYRL [kR-H6-28],250 ± 50,
Lau-HQRVQRVLTYF (all D) [kR-H6-43],300 ± 50,
Pal-RYQRIQRVLTYFA (all D) [kR-H6-19],> 1000,
Ac-RYQRIQRVLTYFAK-e-Pal (all D) [kR-H6-30],10 ± 5,additional fold reduction in GI50 ([7]; Glu162 replaced with Gln): 1.7 fold
Ac-GLNVKIKKK-e-Pal [kR-4A-8],,GI50 ([1]; Table 2 HVR derivatives): > 10000 nM
Pal-LRYQRIERVLTYFADEV (all D) [kR-H6-2],300,
Pal-Aib-YQRIQRVLTYF (all D) [kR-H6-35],450 ± 50,
Ac-VEDAFYTLVREIRQYRK (e-Pal) [kR-H6-7],2700,
Ac-KEKLNSKDGKKKKKKSKTKK-e-Pal [kR-4B-1],,cell invasion (average number of cells migrated) (HCC15 cells [4]): inhibition of HCC15 cell invasion; GI50 ([1]; Table 2 HVR derivatives): 1450 nM; cooperative interactions with membrane lipids ([8]; phospholipid bilayers): showed the best cooperative interactions with membrane lipids; cell migration (average number of cells migrated) (HCC15 cells [5]): inhibition of NCC15 cell migration; cell motility (average closure) (HCC15 cells [6]): inhibition of HCC15 cell motility
Ac-TPGLNVKIKKK-e-Pal [kR-4A-6],,GI50 ([1]; Table 2 HVR derivatives): > 10000 nM
Ac-YQRIQRVLTYFAK-e-Pal (all D) [kR-H6-33],4.5 ± 1,
Ac-KTPGLNVKIKKK-e-Pal [kR-4A-4],,"GI50 ([1]; Table 2 HVR derivatives): 700 nM; growth inhibition (cell number, percent of control) [9]: growth inhibition; GTP-bound Ras (fraction of control) [2]: reduction in activated (GTP-bound) Ras"
Oct-YQRVQRVLTYF (all D) [kR-H6-50],4 ± 1,
Pal-RYQRIQRVLTYF (all D) [kR-H6-20],250,
Pal-e-KAFYTLVREIRQYRL [kR-H6-27],280 ± 30,
Ac-PGLNVKIKKK-e-Pal [kR-4A-7],,GI50 ([1]; Table 2 HVR derivatives): > 10000 nM
Ac-KKKKSKTKK-e-Pal [kR-4B-7],,GI50 ([1]; Table 2 HVR derivatives): 2000 nM
Ac-KTPGAVKIKKK-e-Pal [kR-4A-5],,GI50 ([1]; Table 2 HVR derivatives): 5000 nM
"HVR peptide: represents the hypervariable region of K-Ras-4B, residues 165 through 183; lacks post-translational modifications (QYRLKKISKEEKTPGCVKI; K-Ras4B; UniProt P01116 165-183, looked up, fragment) [reference compound]",,Hill coefficient (membrane binding cooperativity) ([8]; Hill equation): 1.106±0.001
Ac-RYQRIQRVLTYFK-e-Pal (all D) [kR-H6-32],10 ± 4,

Substance,GI50 ([1]; Table 1 helix 6 derivatives) [nM],other results
Pal-e-KAFYTLVREIRQY [kR-H6-10],300,
Ac-KKKSKTKK-e-Pal [kR-4B-8],,"GI50 ([1]; Table 2 HVR derivatives): 2300 nM; tumor weight at the time of sacrifice ([10]; 10 mg/kg s.c. every second day for 20 days, control 1.21 g): 0.35 g; tumor growth ([10]; 10 mg/kg s.c. near the tumor every second day for 20 days): abolished the growth"
Cap-YQRVQRVLTYW (all D) [kR-H6-41],180 ± 40,
Pal-YQRIQRVLTYFA (all D) [kR-H6-21],30,
Cap-YQRVQRVLTYF (all D) [kR-H6-49],0.8,
Pal-YQRIQRVLTYF (all D) [kR-H6-34],18 ± 5,
Lau-YKRVQRVLTYF (all D) [kR-H6-42],300 ± 50,
Pal-YQRVQRVLTYF (all D) [kR-H6-36],10 ± 5,
Myr-YQRVQRVLTYW (all D) [kR-H6-40],20 ± 10,
Ac-KLNSKDGKKKKKKSKTKK-e-Pal [kR-4B-2],,GTP-bound Ras (fraction of control) [2]: reduction in activated (GTP-bound) Ras
Lau-YQRVQRVLTYF (all D) [kR-H6-38],15,
Pal-YQRKQRVLTYF (all D) [kR-H6-14],40,
Pal-KTKSKKKKK-NH2 All-D [kR-4B-6],,GI50 ([1]; Table 2 HVR derivatives): 1700 nM
Lau-YQRVQRVLTYW (all D) [kR-H6-39],90 ± 15,
Pal-e-KFYTLVREIRQYR [kR-H6-12],180,
Lau-YQRVQRVLTYFA (all D) [kR-H6-47],1 ± 1,
Ac-AFYTLVREIRQYRK (e-Pal) [kR-H6-8],5000,
Ac-DGTQGLNLNGLPK-e-Pal [NR-1],,GI50 ([1]; Table 2 HVR derivatives): > 10000 nM
Ac-AFYTLVREIRQYR [kR-H6-17],> 5000,
Ac-RYQRIERVLTYFAK-e-Pal (all D) [kR-H6-23],25 ± 10,"fold more toxic to cancer cells than kR-H6-6 ([7]; retroinverso version versus kR-H6-6): 10 fold; growth inhibition (cell number, percent of control) [9]: growth inhibition"
Ac-DAFYTLVREIRQYRK (e-Pal) [kR-H6-9],500,
Pal-RYQRIERVLTYFADEV (all D) [kR-H6-1],1350,
e-Pal-KRYQRIERVLTYFADEV (all D) [kR-H6-3],> 5000,Ras protein levels by immunostaining (K-Ras in H2592 cells): reduction in protein levels; pattern of K-Ras distribution (K-Ras in H2592 cells): lack of characteristic punctuate pattern of K-Ras distribution; amount of Ras protein [11]: reduced the amount of Ras protein in lung cancer cells in a concentration-dependent manner
Lau-WQRVQRVLTYF (all D) [kR-H6-44],1 ± 1,
Ac-Doa-VEDAFYTLVREIRQYR [kR-H6-5],3300,
Pal-KVEDAFYTLVREIRQYR [kR-H6-4],> 5000,
Ac-LRYQRIQRVLTYFAK-e-Pal (all D) [kR-H6-31],25 ± 10,
